Measurements as given in BindingDB's records for PubMed 34792334 (n/a, 2021).

Legend:
[1] = molecular target: T1, Alpha-ketoglutarate-dependent dioxygenase FTO (Homo sapiens, UniProt Q9C0B1); assay: Inhibition of FTO (unknown origin) demethylation activity using m6A7-Broccoli RNA as substrate incubated for 3 mins under shaking condition and measured after 2 hrs by fluorescence based analysis
[2] = molecular target: T1, Alpha-ketoglutarate-dependent dioxygenase FTO; assay: Inhibition of FTO (unknown origin) demethylation activity

T1 sequence (Q9C0B1 whole entry): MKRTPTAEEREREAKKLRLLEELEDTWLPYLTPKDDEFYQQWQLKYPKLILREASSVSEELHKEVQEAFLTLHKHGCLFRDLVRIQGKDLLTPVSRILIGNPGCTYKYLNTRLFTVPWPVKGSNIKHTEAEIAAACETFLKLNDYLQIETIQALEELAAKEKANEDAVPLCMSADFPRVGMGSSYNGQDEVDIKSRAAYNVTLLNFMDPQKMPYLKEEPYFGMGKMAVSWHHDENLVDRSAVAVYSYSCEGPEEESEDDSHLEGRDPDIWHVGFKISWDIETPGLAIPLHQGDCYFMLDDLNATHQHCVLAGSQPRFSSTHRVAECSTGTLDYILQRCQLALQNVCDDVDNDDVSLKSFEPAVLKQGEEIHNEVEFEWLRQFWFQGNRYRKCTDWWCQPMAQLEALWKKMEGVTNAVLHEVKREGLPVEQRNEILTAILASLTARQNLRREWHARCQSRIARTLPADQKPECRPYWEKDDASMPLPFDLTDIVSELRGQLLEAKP

| SMILES | IC50 [1] [nM] | IC50 [2] [nM] |
| --- | --- | --- |
| Nc1sc(-c2cncnc2)c2c1C(=O)c1ccccc1-2 | 1200 |  |
| CCOc1nc2ccccc2nc1C(=O)Nc1ccc(N(CC)CC)cc1 |  | 1200 |
